Test results taken from patent publication US10597390B2, “Indoles for use in influenza virus infection” (Janssen Sciences Ireland UC, priority 2014, dated 2020).

Key:
[1] = system: influenza virus A/Taiwan/1/86 (H1N1); assay: organism not typed; assay type: cell-based; conditions: CPE in MDCK cells, three days post-virus exposure, ATPlite
MDCK cells = conditions: dog, 3 days
in vitro = conditions: dog, TOX MDCK CC50

Structure (SMILES): Cc1cc(C(=O)N[C@@H]2CCC[C@@H](Nc3nc(-c4c[nH]c5c(F)cc(F)cc45)c(C#N)cc3F)C2)on1 [Compound 220]
- IC50 [1]: 10 nM
- CC50 (MDCK cells): 3.5 µM

Structure (SMILES): Cc1cc(C(=O)N[C@@H]2CCC[C@@H](Nc3nc(-c4c[nH]c5c(F)cc(F)cc45)c(C#N)cc3F)C2)on1 (racemic) [Compound 207]
- IC50 ([1]; MDCK, 72 h): 12 nM
- melting point: 285 °C
- CC50 (MDCK cells): 8 µM

Structure (SMILES): N#Cc1cc(F)c(N[C@H]2C3CCC(CC3)[C@@H]2C(=O)O)nc1-c1c[nH]c2c(F)cc(F)cc12 (mixture of isomers) [Compound 216]
- IC50 [1]: 2 nM
- CC50 (MDCK cells): 0.07 µM

Structure (SMILES): Cc1cc(C(=O)N[C@@H]2CCC[C@H](Nc3nc(-c4c[nH]c5c(F)cc(F)cc45)ncc3F)C2)nn1C [Compound 129]
- IC50 [1]: 8 nM
- melting point: 158 °C
- CC50 (MDCK cells): 7.5 µM

Structure (SMILES): Cn1ccc(C(=O)N[C@@H]2CCC[C@@H](Nc3nc(-c4c[nH]c5c(F)cc(F)cc45)c(C#N)cc3F)C2)n1 [Compound 206]
- IC50 [1]: 3 nM
- CC50 (MDCK cells): > 25 µM

Structure (SMILES): N#Cc1cc(F)c(N[C@@H]2CCC[C@H](NC(=O)N3CCCC3)C2)nc1-c1c[nH]c2c(F)cc(F)cc12 [Compound 163]
- IC50 [1]: 720 nM
- CC50 (MDCK cells): 13.2 µM

Structure (SMILES): Cc1cc(C(=O)N[C@@H]2CCC[C@H](Nc3nc(-c4c[nH]c5c(F)cc(F)cc45)c(C#N)cc3F)C2)nn1C [Compound 211]
- IC50 [1]: 4 nM
- melting point: 235 °C
- CC50 (MDCK cells): > 25 µM

Structure (SMILES): O=C(N[C@@H]1CCC[C@H](Nc2nc(-c3c[nH]c4c(F)cc(Cl)cc34)ncc2F)C1)c1ccccn1 (racemic) [Compound 27]
- IC50 [1]: 11 nM
- CC50 (MDCK cells): 9.5 µM

Structure (SMILES): Cc1cc(C(=O)N[C@@H]2CCC[C@H](Nc3nc(-c4c[nH]c5c(F)cc(Cl)cc45)ncc3F)C2)on1 [Compound 44]
- IC50 [1]: 15 nM
- melting point: 255.1 °C
- CC50 (MDCK cells): 3.5 µM

Structure (SMILES): N#Cc1cc(F)c(N[C@H]2C3CCC(CC3)[C@@H]2C(=O)O)nc1-c1c[nH]c2c(F)cc(F)cc12 [Compound 215]
- IC50 [1]: 0.8 nM
- CC50 (MDCK cells): 0.15 µM

Structure (SMILES): CC(=O)NCc1cc(F)c(N[C@H]2CCC[C@@H](NC(=O)c3cn(C)cn3)C2)nc1-c1c[nH]c2c(F)cc(F)cc12 [Compound 259]
- IC50 [1]: 170 nM
- melting point: > 260 °C
- CC50 (MDCK cells): > 25 µM

Structure (SMILES): Cc1c[nH]c(C(=O)N[C@@H]2CCC[C@H](Nc3nc(-c4c[nH]c5c(F)cc(Cl)cc45)ncc3F)C2)n1 [Compound 71]
- IC50 ([1]; MDCK, 72 h): 2 nM
- melting point: 276.8 °C
- CC50 at 3 days (in vitro): 3.4 µM

Structure (SMILES): CCn1nccc1C(=O)N[C@@H]1CCC[C@H](Nc2nc(-c3c[nH]c4c(F)cc(F)cc34)ncc2F)C1 [Compound 115]
- IC50 ([1]; MDCK, 72 h): 380 nM
- melting point: 266.8 °C
- CC50 at 3 days (in vitro): > 25 µM

Structure (SMILES): N#Cc1cc(F)c(N[C@H]2CCC[C@@H](NC(=O)c3ncccc3F)C2)nc1-c1c[nH]c2c(F)cc(F)cc12 (racemic) [Compound 212]
- IC50 ([1]; MDCK, 72 h): 10 nM
- melting point: 289 °C
- CC50 at 3 days (in vitro): > 25 µM

Structure (SMILES): Cc1cc(F)c2[nH]cc(-c3nc(N[C@@H]4CCC[C@@H](NC(=O)c5cncs5)C4)c(F)cc3C#N)c2c1 (racemic) [Compound 201]
- IC50 ([1]; MDCK, 72 h): 10 nM
- melting point: > 250 °C
- CC50 at 3 days (in vitro): > 21.8 µM

Structure (SMILES): Cc1cc(C(=O)N[C@@H]2CCC[C@H](Nc3nc(-c4c[nH]c5c(F)cc(F)cc45)ncc3F)C2)on1 (racemic) [Compound 91]
- IC50 [1]: 21 nM
- CC50 (MDCK cells): 18.6 µM

Structure (SMILES): Cn1nccc1C(=O)N[C@@H]1CCC[C@H](Nc2nc(-c3c[nH]c4c(F)cc(F)cc34)ncc2F)C1 [Compound 122]
- IC50 ([1]; MDCK, 72 h): 2 nM
- melting point: > 300 °C
- CC50 at 3 days (in vitro): > 25 µM

Structure (SMILES): O=C(N[C@@H]1CCC[C@H](Nc2nc(-c3c[nH]c4c(F)cc(Cl)cc34)ncc2F)C1)c1ncccn1 [Compound 46]
- IC50 ([1]; MDCK, 72 h): 5 nM
- melting point: 286.8 °C
- CC50 at 3 days (in vitro): 4.8 µM

Structure (SMILES): Cn1ncnc1C(=O)N[C@@H]1CCC[C@H](Nc2nc(-c3c[nH]c4c(F)cc(F)cc34)ncc2F)C1 [Compound 140]
- IC50 ([1]; MDCK, 72 h): 7 nM
- melting point: 172.7 °C
- CC50 at 3 days (in vitro): > 25 µM

Structure (SMILES): Cc1cc(F)c2[nH]cc(-c3ncc(F)c(N[C@@H](CC(=O)O)C(C)(C)c4ccn(C)n4)n3)c2c1 [Compound 235]
- IC50 ([1]; MDCK, 72 h): 190 nM
- melting point: > 260 °C
- CC50 at 3 days (in vitro): > 25 µM

Structure (SMILES): O=C(N[C@@H]1CCC[C@H](Nc2nc(-c3c[nH]c4c(F)cc(Cl)cc34)ncc2F)C1)c1ncn[nH]1 [Compound 69]
- IC50 ([1]; MDCK, 72 h): 2 nM
- melting point: 293.5 °C
- CC50 at 3 days (in vitro): 8.4 µM

Structure (SMILES): O=C(N[C@@H]1CCC[C@H](Nc2nc(-c3c[nH]c4c(F)cc(Cl)cc34)ncc2F)C1)c1cncnc1 [Compound 53]
- IC50 ([1]; MDCK, 72 h): 20 nM
- melting point: > 300 °C
- CC50 at 3 days (in vitro): > 25 µM

Structure (SMILES): CC(C)(c1cccs1)[C@H](CC(=O)O)Nc1nc(-c2c[nH]c3c(F)cc(F)cc23)ncc1F [Compound 231]
- IC50 ([1]; MDCK, 72 h): 10 nM
- melting point: 271.1 °C
- CC50 at 3 days (in vitro): 2.6 µM

Structure (SMILES): O=C(N[C@@H]1CCC[C@H](Nc2nc(-c3c[nH]c4c(F)cc(F)cc34)ncc2F)C1)c1cscn1 [Compound 154]
- IC50 ([1]; MDCK, 72 h): 2 nM
- melting point: 266.8 °C
- CC50 at 3 days (in vitro): 15.9 µM

Structure (SMILES): Cc1cc(F)c2[nH]cc(-c3ncc(F)c(N[C@@H]4CCC[C@@H](NC(=O)c5cn(C)cn5)C4)n3)c2c1 (racemic) [Compound 196]
- IC50 ([1]; MDCK, 72 h): 21 nM
- melting point: > 250 °C
- CC50 at 3 days (in vitro): 10.3 µM

Structure (SMILES): Cc1cc(C(=O)N[C@@H]2CCC[C@H](Nc3nc(-c4c[nH]c5c(F)cc(F)cc45)ncc3F)C2)on1 [Compound 133]
- IC50 ([1]; MDCK, 72 h): 13 nM
- melting point: 278.5 °C
- CC50 (MDCK cells): 7.5 µM

Structure (SMILES): COc1ccnc(C(=O)N[C@@H]2CCC[C@H](Nc3nc(-c4c[nH]c5c(F)cc(F)cc45)c(C#N)cc3F)C2)c1 [Compound 161]
- IC50 ([1]; MDCK, 72 h): 3 nM
- melting point: 285.5 °C
- CC50 at 3 days (in vitro): > 25 µM

Structure (SMILES): CC1(C(CC(=O)O)Nc2nc(-c3c[nH]c4c(F)cc(F)cc34)c(C#N)cc2F)CCCC1 (centres unmarked) [Compound 244, 3-((5-cyano-6-(5,7-difluoro-1H-indol-3-yl)-3-fluoropyridin-2-yl)amino)-3-(1-methylcyclopentyl)propanoic Acid]
- IC50 ([1]; MDCK, 72 h): 5 nM
- melting point: 150 °C
- CC50 at 3 days (in vitro): 0.06 µM

Structure (SMILES): CC[C@@]1(C(=O)O)CCCC[C@H]1Nc1nc(-c2c[nH]c3c(F)cc(F)cc23)c(C#N)cc1F (relative stereo) [Compound 247, (trans)-2-((5-cyano-6-(5,7-difluoro-1H-indol-3-yl)-3-fluoropyridin-2-yl)-amino)-1-ethylcyclohexanecarboxylic Acid]
- IC50 ([1]; MDCK, 72 h): 50 nM
- melting point: 254.9 °C
- CC50 at 3 days (in vitro): 0.4 µM

Structure (SMILES): Cc1ncn(C)c1C(=O)N[C@@H]1CCC[C@H](Nc2nc(-c3c[nH]c4c(F)cc(Cl)cc34)ncc2F)C1 [Compound 45]
- IC50 ([1]; MDCK, 72 h): 33 nM
- melting point: > 300 °C
- CC50 at 3 days (in vitro): > 25 µM

Structure (SMILES): O=C(N[C@@H]1CCC[C@H](Nc2nc(-c3c[nH]c4c(F)cc(Cl)cc34)ncc2F)C1)c1cnn[nH]1 [Compound 42]
- IC50 ([1]; MDCK, 72 h): 0.5 nM
- melting point: 280.1 °C
- CC50 at 3 days (in vitro): 3.1 µM

Structure (SMILES): COC(C)(C)C(CC(=O)O)Nc1nc(-c2c[nH]c3c(F)cc(F)cc23)c(C#N)cc1F (centres unmarked) [Compound 240, 3-((5-cyano-6-(5,7-difluoro-1H-indol-3-yl)-3-fluoropyridin-2-yl)amino)-4-methoxy-4-methylpentanoic Acid]
- IC50 ([1]; MDCK, 72 h): 47 nM
- melting point: 218.8 °C
- CC50 at 3 days (in vitro): 0.9 µM

Structure (SMILES): Cn1nnnc1C(=O)N[C@@H]1CCC[C@H](Nc2nc(-c3c[nH]c4c(F)cc(F)cc34)ncc2F)C1 [Compound 152]
- IC50 ([1]; MDCK, 72 h): 40 nM
- melting point: 250.3 °C
- CC50 at 3 days (in vitro): > 5 µM

Structure (SMILES): O=C(N[C@@H]1CCC[C@H](Nc2nc(-c3c[nH]c4c(F)cc(Cl)cc34)ncc2F)C1)c1c[nH]cn1 [Compound 63]
- IC50 ([1]; MDCK, 72 h): 2 nM
- melting point: 245 °C
- CC50 at 3 days (in vitro): 8.9 µM
